20 compounds from PubChem BioAssay AID264 (DTP/NCI, 2004) can be followed below.

The structures appear in SMILES notation. Several values for one entry are separate records, joined by “and”; a condition that tells them apart may be missing. Equal entries are not always repeated. Records with an inconclusive call do not appear.

For this test, the system named is nude mice, LX-1 lung xenograft intrarenal, tumor weight T/C. In words: NCI In Vivo Anticancer Drug Screen. Data for tumor model Human Lung LX-1 Xenograft (intrarenal inoculation) in NU/NU Swiss (nude) mice. Conditions: endpoint: mean tumor weight change, higher = larger tumour. In outline:
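Compound-treated mice carrying transplanted tumors were compared with vehicle-treated controls. Tumor size was the measured end point, and the value is the treated-group measurement divided by the control-group measurement (T/C).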
On the technique in general: A xenograft is tissue or cells of one species grown in another, often human tumour cells in immunodeficient mice.

Setting [1] is: dose: 50.0 mg/kg/injection, schedule: Q01DX010 (sc), vehicle: saline with Tween-80.
Setting [2] is: dose: 100.0 mg/kg/injection, schedule: Q01DX010 (sc), vehicle: saline with Tween-80.
[3] abbreviates: dose: 400.0 mg/kg/injection, schedule: Q01DX010 (sc), vehicle: saline with Tween-80.
Where [4] appears, read: dose: 300.0 mg/kg/injection, schedule: Q04DX003 (sc), vehicle: saline with Tween-80.
Setting [5] is: dose: 600.0 mg/kg/injection, schedule: Q04DX003 (sc), vehicle: saline with Tween-80.
Setting [6] is: dose: 1200.0 mg/kg/injection, schedule: Q04DX003 (sc), vehicle: saline with Tween-80.
The mark [7] stands for this setting: dose: 2400.0 mg/kg/injection, schedule: Q04DX003 (sc), vehicle: saline with Tween-80.
The mark [8] stands for this setting: dose: 6.25 mg/kg/injection, schedule: Q01DX010 (sc), vehicle: saline.
The mark [9] stands for this setting: dose: 100.0 mg/kg/injection, schedule: Q04DX003 (sc), vehicle: saline.
Setting [10] is: dose: 300.0 mg/kg/injection, schedule: Q04DX003 (sc), vehicle: Klucel (hydroxypropylcellulose) (HPC).
Setting [11] is: dose: 600.0 mg/kg/injection, schedule: Q04DX003 (sc), vehicle: Klucel (hydroxypropylcellulose) (HPC).
Setting [12] is: dose: 200.0 mg/kg/injection, schedule: Q01DX010 (sc), vehicle: saline.
Setting [13] is: dose: 400.0 mg/kg/injection, schedule: Q01DX010 (sc), vehicle: saline.
[14] abbreviates: dose: 200.0 mg/kg/injection, schedule: Q01DX010 (sc), vehicle: saline with Tween-80.

Regarding `O.O.[NH-]C1CCCCC1[NH-].[Pt+2]` (configuration not stated), the T/C reads like this: (dose: 5.0 mg/kg/injection, schedule: Q01DX010 (sc), vehicle: dextrose) 68 % of control; (dose: 10.0 mg/kg/injection, schedule: Q01DX010 (sc), vehicle: dextrose) 74 % of control; (dose: 20.0 mg/kg/injection, schedule: Q01DX010 (sc), vehicle: dextrose) 57 % of control.

Turning to `Oc1ccc(SCc2ccc(NCc3ccccc3)cc2)cc1`, the T/C (dose: 25.0 mg/kg/injection, schedule: Q01DX010 (sc), vehicle: saline with Tween-80) was 97 % of control; the T/C under setting [1] was 44 % of control; the T/C under setting [2] was 53 % of control; the T/C under setting [3] was 190 % of control; the T/C (dose: 800.0 mg/kg/injection, schedule: Q01DX010 (sc), vehicle: saline with Tween-80) was 54 % of control.

Regarding `CC[C@](C)(O)C(=O)O[C@H]1C(=O)O[C@@H]2C[C@H]3C(C)=CC(=O)[C@@H](O)[C@]3(C)[C@H]3[C@@]4(O)OC[C@]32[C@@H]1[C@@H](C)[C@H]4O`, the T/C is, setting by setting: (dose: 0.25 mg/kg/injection, schedule: Q01DX010 (sc), vehicle: Klucel (hydroxypropylcellulose) (HPC)) 48 % of control; (dose: 0.5 mg/kg/injection, schedule: Q01DX010 (sc), vehicle: Klucel (hydroxypropylcellulose) (HPC)) 71 % of control and 92 % of control; (dose: 1.0 mg/kg/injection, schedule: Q01DX010 (sc), vehicle: Klucel (hydroxypropylcellulose) (HPC)) 70 % of control and 75 % of control; (dose: 2.0 mg/kg/injection, schedule: Q01DX010 (sc), vehicle: Klucel (hydroxypropylcellulose) (HPC)) 43 % of control and 45 % of control.

Consider `CN(CCN(C)C(=O)CCOS(C)(=O)=O)C(=O)CCOS(C)(=O)=O`, for which the T/C is, setting by setting: (dose: 150.0 mg/kg/injection, schedule: Q04DX003 (sc), vehicle: saline) 58 % of control; (dose: 300.0 mg/kg/injection, schedule: Q04DX003 (sc), vehicle: saline) 27 % of control.

Turning to `COc1cc(Cl)ccc1C`, the T/C under setting [4] is 116 % of control, the T/C under setting [5] was 88 % of control, the T/C under setting [6] was 100 % of control and the T/C under setting [7] was 121 % of control.

With `O=C1NC(=O)/C(=C/C=C/c2ccccc2)S1`, the T/C under setting [4] is 87 % of control, the T/C under setting [5] was 118 % of control, the T/C under setting [6] was 94 % of control and the T/C under setting [7] was 62 % of control.

Take `O=P1(N(CCCl)CCCl)NCCCO1` (configuration not stated): the T/C is 76 % of control (dose: 3.13 mg/kg/injection, schedule: Q01DX010 (sc), vehicle: saline); 48 % of control (dose: 6.25 mg/kg/injection, schedule: Q01DX010 (ip), vehicle: saline); 85 % of control under setting [8]; 29 % of control (dose: 12.5 mg/kg/injection, schedule: Q01DX010 (ip), vehicle: saline); 151 % of control (dose: 20.8 mg/kg/injection, schedule: Q04DX003 (ip), vehicle: saline); 56 % of control (dose: 25.0 mg/kg/injection, schedule: Q01DX010 (ip), vehicle: saline). In addition, the T/C reads like this: (dose: 41.66 mg/kg/injection, schedule: Q04DX003 (ip), vehicle: saline) 51 % of control; (dose: 41.66 mg/kg/injection, schedule: Q04DX003 (sc), vehicle: saline) 44 % of control; (dose: 50.0 mg/kg/injection, schedule: Q04DX003 (sc), vehicle: suspension in saline) 87 % of control and 92 % of control; (dose: 83.33 mg/kg/injection, schedule: Q04DX003 (sc), vehicle: saline) 20 % of control; under setting [9], 28 % of control; (dose: 100.0 mg/kg/injection, schedule: Q04DX003 (sc), vehicle: suspension in saline) 70 % of control and 90 % of control. In addition, the T/C is 13 % of control (dose: 200.0 mg/kg/injection, schedule: Q04DX003 (sc), vehicle: saline) and 42 % of control (dose: 200.0 mg/kg/injection, schedule: Q04DX003 (sc), vehicle: suspension in saline).

Consider `COC(=O)C(Cl)(Cl)N=Nc1c(Cl)cc(Cl)c(C)c1Cl`, for which the T/C was 210 % of control (dose: 150.0 mg/kg/injection, schedule: Q04DX003 (sc), vehicle: saline with Tween-80); 196 % of control under setting [4]; 237 % of control under setting [5]; 209 % of control under setting [6].

Consider `COC1C(CO)OC(n2cnc3c(=S)nc(N)[nH]c32)C1O` (configuration not stated), for which the T/C (dose: 75.0 mg/kg/injection, schedule: Q04DX003 (sc), vehicle: Klucel (hydroxypropylcellulose) (HPC)) was 118 % of control; the T/C (dose: 150.0 mg/kg/injection, schedule: Q04DX003 (sc), vehicle: Klucel (hydroxypropylcellulose) (HPC)) is 110 % of control; the T/C under setting [10] is 86 % of control; the T/C under setting [11] is 66 % of control.

Consider `CN1c2c(nc(N)[nH]c2=O)NCC1CCNc1ccc(C(=O)NC(CCC(=O)O)C(=O)O)cc1` (configuration not stated), for which the T/C was 82 % of control (dose: 100.0 mg/kg/injection, schedule: Q01DX010 (sc), vehicle: saline); 36 % of control and 41 % of control under setting [12]; 11 % of control and 36 % of control under setting [13]; 11 % of control (dose: 800.0 mg/kg/injection, schedule: Q01DX010 (sc), vehicle: saline); 27 % of control (dose: 1600.0 mg/kg/injection, schedule: Q01DX010 (sc), vehicle: saline).

For `CN(C(=S)S(=O)(=O)C12CC3CC(CC(C3)C1)C2)c1ccccc1`, the T/C (dose: 50.0 mg/kg/injection, schedule: Q04DX003 (sc), vehicle: Klucel (hydroxypropylcellulose) (HPC)) is 164 % of control; the T/C (dose: 100.0 mg/kg/injection, schedule: Q04DX003 (sc), vehicle: Klucel (hydroxypropylcellulose) (HPC)) was 161 % of control; the T/C (dose: 400.0 mg/kg/injection, schedule: Q04DX003 (sc), vehicle: Klucel (hydroxypropylcellulose) (HPC)) was 176 % of control.

With `c1cc(-c2cc3ccc(C4=NCCN4)cc3[nH]2)ccc1C1=NCCN1`, the T/C is, setting by setting: (dose: 25.0 mg/kg/injection, schedule: Q04DX003 (sc), vehicle: saline) 68 % of control; (dose: 50.0 mg/kg/injection, schedule: Q04DX003 (sc), vehicle: saline) 67 % of control; under setting [9], 73 % of control.

Turning to `O=C(O)CC(NC(=O)CP(=O)(O)O)C(=O)O` (configuration not stated), the T/C is 51 % of control (dose: 25.0 mg/kg/injection, schedule: Q01DX010 (sc), vehicle: saline); 90 % of control (dose: 50.0 mg/kg/injection, schedule: Q01DX010 (sc), vehicle: saline); 57 % of control under setting [12]; 174 % of control under setting [13].

For `CCC(CC)COC(=O)c1ccccc1C(=O)OCC(CC)CC`, the T/C reads like this: under setting [4], 56 % of control; under setting [5], 71 % of control; under setting [6], 64 % of control; under setting [7], 73 % of control.

On to `CNc1cccnc1/C=N/NC(N)=S`, for which the T/C under setting [4] was 94 % of control, the T/C under setting [5] was 57 % of control, the T/C under setting [6] is 67 % of control and the T/C under setting [7] is 75 % of control.

For the compound `C=C(C)[C@]12CC(C)C34OC(/C=C\C=C\CCCCCCCCC)(O[C@@H]1[C@@H]3[C@@H]1O[C@]1(CO)[C@@H](O)[C@]1(O)C(=O)C(C)=C[C@@H]41)O2` (some centres not stated), the T/C by setting is: (dose: 3.0 mg/kg/injection, schedule: Q04DX003 (sc), vehicle: distilled water + alcohol) 84 % of control; (dose: 6.0 mg/kg/injection, schedule: Q04DX003 (sc), vehicle: distilled water + alcohol) 77 % of control; (dose: 12.0 mg/kg/injection, schedule: Q04DX003 (sc), vehicle: distilled water + alcohol) 81 % of control.

As for `c1ccc2sc(SSN3CC4CCC(CC4)C3)nc2c1`, the T/C is, setting by setting: under setting [1], 81 % of control; under setting [2], 76 % of control; under setting [14], 48 % of control; under setting [3], 50 % of control.

Take `Cc1cc2nc3c(=O)[nH]c(=O)nc-3n(CC(O)C(O)C(O)C(O)CO)c2cc1C` (configuration not stated): the T/C runs as follows: under setting [2], 75 % of control; under setting [14], 92 % of control; under setting [3], 66 % of control.

In the case of `C[n+]1c2cc(N)ccc2cc2ccc(N)cc21`, the T/C under setting [8] was 72 % of control.

Regarding `CSc1ncc2ncn(C3OC(CO)C(O)C3O)c2n1` (configuration not stated), the T/C by setting is: under setting [10], 61 % of control; under setting [11], 57 % of control; (dose: 1200.0 mg/kg/injection, schedule: Q04DX003 (sc), vehicle: Klucel (hydroxypropylcellulose) (HPC)) 56 % of control; (dose: 2400.0 mg/kg/injection, schedule: Q04DX003 (sc), vehicle: Klucel (hydroxypropylcellulose) (HPC)) 53 % of control.
